Consider 16 molecules from US7674819B2 (Warner-Lambert Company LLC, priority 2005, dated 2010).

One experiment addresses T1, hAR (Homo sapiens, UniProt P10275).
T1 sequence (P10275 1-920): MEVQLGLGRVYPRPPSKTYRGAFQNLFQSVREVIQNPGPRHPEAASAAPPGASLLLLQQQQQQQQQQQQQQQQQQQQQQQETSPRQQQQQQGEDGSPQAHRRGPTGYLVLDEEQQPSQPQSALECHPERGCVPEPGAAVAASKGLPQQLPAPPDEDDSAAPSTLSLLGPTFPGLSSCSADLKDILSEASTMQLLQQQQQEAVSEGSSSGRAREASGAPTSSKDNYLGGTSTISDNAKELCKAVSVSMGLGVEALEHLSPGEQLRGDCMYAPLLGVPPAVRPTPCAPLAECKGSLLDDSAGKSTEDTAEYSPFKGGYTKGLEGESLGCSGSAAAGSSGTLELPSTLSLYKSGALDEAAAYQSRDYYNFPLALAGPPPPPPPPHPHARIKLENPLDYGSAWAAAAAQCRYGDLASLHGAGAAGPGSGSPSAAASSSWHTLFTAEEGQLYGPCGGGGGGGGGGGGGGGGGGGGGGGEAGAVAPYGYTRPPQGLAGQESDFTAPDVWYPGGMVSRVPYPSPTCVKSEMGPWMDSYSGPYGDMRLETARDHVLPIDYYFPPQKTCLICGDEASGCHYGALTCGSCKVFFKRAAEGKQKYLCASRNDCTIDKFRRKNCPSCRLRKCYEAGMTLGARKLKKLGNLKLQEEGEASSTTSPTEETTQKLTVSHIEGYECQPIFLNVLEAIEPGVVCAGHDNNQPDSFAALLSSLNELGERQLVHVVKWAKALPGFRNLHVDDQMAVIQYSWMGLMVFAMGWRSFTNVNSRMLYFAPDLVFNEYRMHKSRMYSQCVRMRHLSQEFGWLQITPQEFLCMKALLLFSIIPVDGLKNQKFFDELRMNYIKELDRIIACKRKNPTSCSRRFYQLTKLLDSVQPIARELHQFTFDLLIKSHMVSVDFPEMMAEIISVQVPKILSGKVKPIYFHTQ
The experiment in a line: Competitive binding of 3H-DHT to baculovirus/Sf9 generated hAR extracts. To be noted: one hour at 4° C., mean of multiple tests. Here is the method:
The description below describes how the assay was carried out.
Competitive binding analysis was performed on baculovirus/Sf9 generated hAR extracts in the presence or absence of different concentrations of test agent and a fixed concentration of ^3H-dihydrotestosterone (^3H-DHT) as tracer. This binding assay method is a modification of a protocol previously described (Liao S., et. al. J. Steroid Biochem. 20:11-17 1984). Briefly, progressively decreasing concentrations of compounds are incubated in the presence of hAR extract (Chang et al. P.N.A.S. Vol. 89, pp. […], 1992), hydroxylapatite, and 1 nM^3H-DHT for one hour at 4° C. Subsequently, the binding reactions are washed three times to completely remove excess unbound ^3H-DHT. hAR bound ^3H-DHT levels are determined in the presence of compounds (i.e. competitive binding) and compared to levels bound when no competitor is present (i.e. maximum binding). Compound binding affinity to the hAR is expressed as the concentration of compound at which one half of the maximum binding is inhibited.

A further experiment addresses T2, androgen receptor (Homo sapiens, UniProt P10275).
T2 sequence (P10275 1-920 Q868H): T1 sequence (P10275 1-920) with Q868H
The experiment in a line: AR Antagonist Cell Assay (MDA-MB453-MMTV clone 54-19, luciferase reporter). The note with it: inhibition of induction by DHT (final concentration at 100 μM), 17 hr, compound 0.32-1000 nM, mean of multiple tests. In kind it is cell-based. Here is the method:
The compounds ability to antagonize the effects of androgen on the androgen receptor were determined in a whole cell assay as described immediately below.
Experimental Procedure for AR Antagonist Cell Assay
This cell line is a stable transfected cell line with MDA-MB453 cell background (a human breast tumor cell line expressing androgen receptor). A MMTV minimal promoter containing ARE was first cloned in front of a firefly luciferase reporter gene. Then the cascade was cloned into transfection vector pUV120puro. […] Puromycin resistant stable cell line was selected.
Cell Culture Media and Reagents:
Plating medium: DMEM (phenol red free), 10% charcoal treated HyClone serum, 1% L-glutamine
Assay medium: DMEM (phenol red free), 1% charcoal treated HyClone serum, 1% L-glutamine, 1% penicillin/streptomycin
Cells are maintained in culture medium, splitting cells when they reach 80-90% confluence
To test compounds, 10,000 cells/well are plated to opaque 96 cell culture plate in 100 ul/well plating medium, culture for overnight at 37° C. in cell culture incubator
Add 10 ul/well freshly prepared DHT (final concentration at […]) to each well, incubate at 37° C. for 17 hr (overnight)
Add 50 ul/well 3× luciferase buffer, incubate at room temperature for 5 minutes, then count on Luminometer
The results are reported as the mean of multiple tests described below (the numbers of tests are indicated in the footnote). N.D. denotes that the compound was not tested.
(Reporter assays use an easily measured gene product as a stand-in for the process of interest.)

Where [1] appears, read: IC50, concentration at which one half of maximum binding of 1 nM 3H-DHT to hAR is inhibited.
Setting [2] is: concentration at which one half of maximum binding of 1 nM 3H-DHT to hAR is inhibited, read-out: IC50.

As usually defined, the IC50 is the concentration that gives 50% inhibition.

Numbering of substitutions follows the chain as printed. Where two headings read alike, the source gives them in different places. Some results are limits rather than exact numbers.

Regarding `CC1(C)CN(C(=O)c2cccc(C#N)c2)C(=O)C1Oc1ccc(C#N)c(C(F)(F)F)c1` (centres unmarked) [Example 107, 4-[1-(3-Cyano-benzoyl)-4,4-dimethyl-2-oxo-pyrrolidin-3-yloxy]-2-trifluoromethyl-benzonitrile], the IC50 on hAR (setting [1]) stood at 68 nM; on androgen receptor (read-out: IC50), 653 nM.

With `CC1(C)CN(S(=O)(=O)C2CC2)C(=O)C1Oc1ccc(C#N)c(C(F)(F)F)c1` (single isomer, unassigned) [Example 100C, 4-(1-Cyclopropanesulfonyl-4,4-dimethyl-2-oxo-pyrrolidin-3-yloxy)-2-trifluoromethyl-benzonitrile], the figures for the IC50 at hAR (setting [1]) and against androgen receptor were 59 nM and 38 nM, respectively.

With `COc1cccc(CN2CC(C)(C)C(Oc3ccc(C#N)c(C(F)(F)F)c3)C2=O)c1` (centres unmarked) [Example 12, 4-[1-(3-Methoxy-benzyl)-4,4-dimethyl-2-oxo-pyrrolidin-3-yloxy]-2-trifluoromethyl-benzonitrile], the IC50 on hAR (setting [1]) was 111 nM; against androgen receptor, 310 nM.

As for `COc1cccc(-c2nnc(CN3CC(C)(C)C(Oc4ccc(C#N)c(C(F)(F)F)c4)C3=O)o2)c1` (centres unmarked) [Example 118, 4-{1-[5-(3-Methoxy-phenyl)-[1,3,4]oxadiazol-2-ylmethyl]-4,4-dimethyl-2-oxo-pyrrolidin-3-yloxy}-2-trifluoromethyl-benzonitrile], the IC50 at hAR (setting [2]) was determined as 170 nM; on androgen receptor (read-out: IC50), 381 nM.

Turning to `COc1ccc(-c2nnc(CN3CC(C)(C)C(Oc4ccc(C#N)c(C(F)(F)F)c4)C3=O)o2)cc1` (centres unmarked) [Example 119, 4-{1-[5-(4-Methoxy-phenyl)-[1,3,4]oxadiazol-2-ylmethyl]-4,4-dimethyl-2-oxo-pyrrolidin-3-yloxy}-2-trifluoromethyl-benzonitrile], the figures for the IC50 on hAR (setting [1]) and on androgen receptor (read-out: IC50) were 80 nM and 199 nM, respectively.

As to `CC1(C)CN(C2CCCC2)C(=O)C1Oc1ccc(C#N)c(C(F)(F)F)c1` (centres unmarked) [Example 98, 4-(1-Cyclopentyl-4,4-dimethyl-2-oxo-pyrrolidin-3-yloxy)-2-trifluoromethyl-benzonitrile], the IC50 was determined as 169 nM at hAR (setting [2]) and 315 nM on androgen receptor (read-out: IC50).

Consider `C[C@@H](c1ccc(F)cc1)N1CC(C)(C)[C@@H](Oc2ccc(C#N)c(C(F)(F)F)c2)C1=O` (racemic) [Example 71, (±)-4-{1-[1-(4-Fluoro-phenyl)-ethyl]-4,4-dimethyl-2-oxo-pyrrolidin-3-yloxy}-2-trifluoromethyl-benzonitrile], for which the IC50 at hAR (setting [2]) turned out to be 104 nM; against androgen receptor it was 6 nM.

On to `CC1(C)CN(Cc2ccc3nonc3c2)C(=O)C1Oc1ccc(C#N)c(C(F)(F)F)c1` (centres unmarked) [Example 57, 4-(1-Benzo[1,2,5]oxadiazol-5-ylmethyl-4,4-dimethyl-2-oxo-pyrrolidin-3-yloxy)-2-trifluoromethyl-benzonitrile], for which the IC50 on hAR (setting [1]) was 31 nM; at androgen receptor (read-out: IC50), more than 1000 nM.

`CC1(C)CN(C(=O)c2ccc(C#N)cc2)C(=O)C1Oc1ccc(C#N)c(C(F)(F)F)c1` (centres unmarked) [Example 104, 4-[1-(4-Cyano-benzoyl)-4,4-dimethyl-2-oxo-pyrrolidin-3-yloxy]-2-trifluoromethyl-benzonitrile]: the figures for the IC50 on hAR (setting [2]) and on androgen receptor were 248 nM and 37 nM, respectively.

For the molecule `CC1(C)CN(Cc2ccc3ccccc3n2)C(=O)C1Oc1ccc(C#N)c(C(F)(F)F)c1` (centres unmarked) [Example 54, 4-(4,4-Dimethyl-2-oxo-1-quinolin-2-ylmethyl-pyrrolidin-3-yloxy)-2-trifluoromethyl-benzonitrile], the concentration for half-maximal inhibition (IC50) at hAR (setting [2]) was 217 nM; at androgen receptor (read-out: IC50), more than 1000 nM.

As to `CC1(C)CN(Cc2ccccc2C#N)C(=O)C1Oc1ccc(C#N)c(C(F)(F)F)c1` (centres unmarked) [Example 47, 4-[1-(2-Cyano-benzyl)-4,4-dimethyl-2-oxo-pyrrolidin-3-yloxy]-2-trifluoromethyl-benzonitrile], the IC50 on hAR (setting [1]) amounted to 83 nM; against androgen receptor, 42 nM.

Take `CC1(C)CN(Cc2ccncc2)C(=O)C1Oc1ccc(C#N)c(C(F)(F)F)c1` (centres unmarked) [Example 35, 4-(4,4-Dimethyl-2-oxo-1-pyridin-4-ylmethyl-pyrrolidin-3-yloxy)-2-trifluoromethyl-benzonitrile]: the concentration for half-maximal inhibition (IC50) on hAR (setting [1]) amounted to 128 nM; against androgen receptor it was 486 nM.

For `CCCS(=O)(=O)N1CC(C)(C)C(Oc2ccc(C#N)c(C(F)(F)F)c2)C1=O` (centres unmarked) [Example 75, 4-[4,4-Dimethyl-2-oxo-1-(propane-1-sulfonyl)-pyrrolidin-3-yloxy]-2-trifluoromethyl-benzonitrile], the values for the IC50 at hAR (setting [1]) and against androgen receptor were 64 nM and 16 nM, respectively.

Consider `C[C@@H](c1ccccc1)N1CC(C)(C)C(Oc2ccc(C#N)c(C(F)(F)F)c2)C1=O` (mixture of isomers) [Example 69, (+)-4-[4,4-Dimethyl-2-oxo-1-(1-phenyl-ethyl)-pyrrolidin-3-yloxy]-2-trifluoromethyl-benzonitrile], for which the IC50 at hAR (setting [2]) was 258 nM; on androgen receptor (read-out: IC50), 331 nM.

For `CC1(C)CN(Cc2cc(O)cc(O)c2)C(=O)C1Oc1ccc(C#N)c(C(F)(F)F)c1` (centres unmarked) [Example 18, 4-[1-(3,5-Dihydroxy-benzyl)-4,4-dimethyl-2-oxo-pyrrolidin-3-yloxy]-2-trifluoromethyl-benzonitrile], the IC50 on hAR (setting [1]) came to 45 nM; on androgen receptor it was 8 nM.

Take `Cc1ccc(-c2nnc(CN3CC(C)(C)C(Oc4ccc(C#N)c(C(F)(F)F)c4)C3=O)o2)cc1` (centres unmarked) [Example 61, 4-[4,4-Dimethyl-2-oxo-1-(5-p-tolyl-[1,3,4]oxadiazol-2-ylmethyl)-pyrrolidin-3-yloxy]-2-trifluoromethyl-benzonitrile]: the IC50 on hAR (setting [2]) worked out at 101 nM; on androgen receptor, 51 nM.
